The target in test [1] is T1, Serine/threonine-protein kinase DCLK2 (Homo sapiens) (UniProt Q8N568).
T1 sequence (whole entry): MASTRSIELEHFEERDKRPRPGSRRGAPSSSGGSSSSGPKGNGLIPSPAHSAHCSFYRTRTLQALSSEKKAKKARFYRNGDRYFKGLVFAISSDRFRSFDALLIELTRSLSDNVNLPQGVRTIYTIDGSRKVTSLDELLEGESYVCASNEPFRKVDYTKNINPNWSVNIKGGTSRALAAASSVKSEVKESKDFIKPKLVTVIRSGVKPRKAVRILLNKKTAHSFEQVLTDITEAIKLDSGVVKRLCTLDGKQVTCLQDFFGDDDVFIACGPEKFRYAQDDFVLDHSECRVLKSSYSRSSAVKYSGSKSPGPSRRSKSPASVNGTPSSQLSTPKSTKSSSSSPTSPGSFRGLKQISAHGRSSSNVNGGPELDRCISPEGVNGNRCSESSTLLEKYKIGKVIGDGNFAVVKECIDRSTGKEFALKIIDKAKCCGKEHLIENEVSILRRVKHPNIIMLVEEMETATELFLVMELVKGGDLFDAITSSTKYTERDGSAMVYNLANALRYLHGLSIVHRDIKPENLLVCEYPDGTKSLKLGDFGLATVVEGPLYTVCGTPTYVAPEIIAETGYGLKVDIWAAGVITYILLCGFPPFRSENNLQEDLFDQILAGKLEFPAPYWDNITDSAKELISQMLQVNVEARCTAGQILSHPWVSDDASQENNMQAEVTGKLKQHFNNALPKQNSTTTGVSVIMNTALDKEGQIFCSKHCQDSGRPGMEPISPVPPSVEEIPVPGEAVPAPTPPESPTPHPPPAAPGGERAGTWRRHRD
Briefly: Selectivity interaction (Kinase panel (Z-LYTE Assay)) EUB0001632a DCLK2. As to conditions: at 10 µM.

The target in test [2] is T2, Bone morphogenetic protein receptor type-2 (Homo sapiens) (UniProt Q13873).
T2 sequence (whole entry): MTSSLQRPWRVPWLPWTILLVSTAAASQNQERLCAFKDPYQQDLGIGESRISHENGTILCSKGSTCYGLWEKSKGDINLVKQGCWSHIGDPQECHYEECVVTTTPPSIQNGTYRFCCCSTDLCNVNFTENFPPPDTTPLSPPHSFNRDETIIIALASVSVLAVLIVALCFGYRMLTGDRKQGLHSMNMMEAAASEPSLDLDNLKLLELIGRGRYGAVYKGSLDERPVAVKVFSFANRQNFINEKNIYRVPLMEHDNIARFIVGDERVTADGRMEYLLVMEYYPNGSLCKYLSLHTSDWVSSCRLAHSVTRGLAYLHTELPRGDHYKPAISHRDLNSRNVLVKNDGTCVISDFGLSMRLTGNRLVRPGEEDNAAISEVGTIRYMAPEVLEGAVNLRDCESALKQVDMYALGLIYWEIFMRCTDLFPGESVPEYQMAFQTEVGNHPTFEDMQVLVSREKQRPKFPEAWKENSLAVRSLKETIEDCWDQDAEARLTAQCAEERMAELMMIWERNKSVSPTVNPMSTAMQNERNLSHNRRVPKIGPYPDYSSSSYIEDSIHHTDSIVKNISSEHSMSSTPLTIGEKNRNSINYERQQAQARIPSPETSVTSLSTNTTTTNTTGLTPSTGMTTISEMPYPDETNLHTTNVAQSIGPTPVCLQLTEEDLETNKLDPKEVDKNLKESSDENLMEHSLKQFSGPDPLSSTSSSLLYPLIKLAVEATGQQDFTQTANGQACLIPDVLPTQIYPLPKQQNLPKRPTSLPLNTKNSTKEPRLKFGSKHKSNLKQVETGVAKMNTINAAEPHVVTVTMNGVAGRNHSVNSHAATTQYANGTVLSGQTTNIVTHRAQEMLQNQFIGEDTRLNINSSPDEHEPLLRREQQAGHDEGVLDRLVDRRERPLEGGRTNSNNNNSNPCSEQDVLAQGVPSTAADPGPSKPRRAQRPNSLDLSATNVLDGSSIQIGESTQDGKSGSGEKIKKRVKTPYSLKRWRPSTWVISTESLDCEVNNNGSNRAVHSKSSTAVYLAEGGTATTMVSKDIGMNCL
Briefly: Selectivity interaction (KinomeScan (DiscoverX)) EUB0000607a BMPR2. As to conditions: at 10 µM.

Test [3] concerns the target Serine/threonine-protein kinase Nek4 (Homo sapiens) (UniProt P51957). Briefly: Selectivity interaction (KinomeScan (DiscoverX)) EUB0000655a NEK4. As to conditions: at 10 µM.
Test [4] deals with Phosphatidylinositol 4-kinase beta (Homo sapiens, UniProt Q9UBF8). Briefly: Selectivity interaction (ActivX KiNativ screen (ex vivo kinase selectivity in human PBMCs)) EUB0001619a PI4KB. The class given is cell-based. As to conditions: PBMC, at 1 µM.
The target in test [5] is RAC-alpha serine/threonine-protein kinase (Homo sapiens, UniProt P31749). Briefly: Selectivity interaction (Kinase panel (33PanQinase(R) Activity Assay)) EUB0000877a AKT1.
Test [6] addresses Mitogen-activated protein kinase 14 (Homo sapiens, UniProt Q16539). The experiment in a line: Selectivity interaction (ActivX KiNativ screen (kinase selectivity in THP-1 cell lysates)) EUB0000639a MAPK14. It is filed as subcellular. Particulars: lysate, at 1 µM.
Test [7] deals with T3, Protein kinase C zeta type (Homo sapiens) (UniProt Q05513).
T3 sequence (whole entry): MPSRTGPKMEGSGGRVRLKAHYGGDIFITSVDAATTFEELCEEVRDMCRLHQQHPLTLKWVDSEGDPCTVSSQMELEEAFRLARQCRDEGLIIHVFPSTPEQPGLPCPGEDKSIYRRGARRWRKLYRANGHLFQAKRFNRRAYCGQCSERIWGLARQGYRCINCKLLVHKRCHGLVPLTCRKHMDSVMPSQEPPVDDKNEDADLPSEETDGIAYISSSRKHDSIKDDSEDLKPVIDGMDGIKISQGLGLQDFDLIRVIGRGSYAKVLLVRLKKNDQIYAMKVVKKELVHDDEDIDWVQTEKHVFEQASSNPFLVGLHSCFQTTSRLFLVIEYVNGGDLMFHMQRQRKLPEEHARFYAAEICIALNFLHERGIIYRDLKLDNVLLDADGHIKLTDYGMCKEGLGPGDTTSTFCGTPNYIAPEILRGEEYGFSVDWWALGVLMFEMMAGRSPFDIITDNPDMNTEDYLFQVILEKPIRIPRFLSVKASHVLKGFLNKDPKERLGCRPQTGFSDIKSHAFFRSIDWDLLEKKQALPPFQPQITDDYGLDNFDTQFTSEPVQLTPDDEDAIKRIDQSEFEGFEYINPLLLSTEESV
Briefly: Selectivity interaction (Kinase panel (Invitrogen)) EUB0000639a PRKCZ. As to conditions: at 200 nM.

Test [8] addresses Calcium/calmodulin-dependent protein kinase type II subunit beta (Homo sapiens) (UniProt Q13554). Particulars: at 10 µM.
Test [9] has as its target Activin receptor type-1-like (Homo sapiens) (UniProt P37023). The experiment in a line: Selectivity interaction (ProQinase) EUB0000171b ACVRL1.
Test [10] has as its target Ephrin type-A receptor 2 (Homo sapiens) (UniProt P29317). Briefly: Selectivity interaction (KinomeScan (DiscoverX)) EUB0000092b EPHA2. Particulars: at 10 µM.

The results in this text go back to ChEMBL document CHEMBL5465560, “Selectivity Literature for EUbOPEN Chemogenomic Library” (2024).

Chain of Activin receptor type-1-like (Homo sapiens) (P37023 whole entry): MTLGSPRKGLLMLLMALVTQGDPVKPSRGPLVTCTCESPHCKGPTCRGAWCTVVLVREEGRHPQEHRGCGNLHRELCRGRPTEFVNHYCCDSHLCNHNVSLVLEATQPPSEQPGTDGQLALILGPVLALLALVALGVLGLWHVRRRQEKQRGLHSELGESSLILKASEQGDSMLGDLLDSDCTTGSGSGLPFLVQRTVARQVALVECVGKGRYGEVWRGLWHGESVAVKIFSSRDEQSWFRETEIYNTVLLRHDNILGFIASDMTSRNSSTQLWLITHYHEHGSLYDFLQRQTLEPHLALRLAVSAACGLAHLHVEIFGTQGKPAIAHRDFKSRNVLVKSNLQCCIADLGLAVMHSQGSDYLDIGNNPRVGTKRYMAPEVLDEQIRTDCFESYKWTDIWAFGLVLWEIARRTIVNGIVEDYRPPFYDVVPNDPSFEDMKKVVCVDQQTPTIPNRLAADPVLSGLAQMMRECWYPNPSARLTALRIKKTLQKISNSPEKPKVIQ
Chain of Ephrin type-A receptor 2 (Homo sapiens) (P29317 whole entry): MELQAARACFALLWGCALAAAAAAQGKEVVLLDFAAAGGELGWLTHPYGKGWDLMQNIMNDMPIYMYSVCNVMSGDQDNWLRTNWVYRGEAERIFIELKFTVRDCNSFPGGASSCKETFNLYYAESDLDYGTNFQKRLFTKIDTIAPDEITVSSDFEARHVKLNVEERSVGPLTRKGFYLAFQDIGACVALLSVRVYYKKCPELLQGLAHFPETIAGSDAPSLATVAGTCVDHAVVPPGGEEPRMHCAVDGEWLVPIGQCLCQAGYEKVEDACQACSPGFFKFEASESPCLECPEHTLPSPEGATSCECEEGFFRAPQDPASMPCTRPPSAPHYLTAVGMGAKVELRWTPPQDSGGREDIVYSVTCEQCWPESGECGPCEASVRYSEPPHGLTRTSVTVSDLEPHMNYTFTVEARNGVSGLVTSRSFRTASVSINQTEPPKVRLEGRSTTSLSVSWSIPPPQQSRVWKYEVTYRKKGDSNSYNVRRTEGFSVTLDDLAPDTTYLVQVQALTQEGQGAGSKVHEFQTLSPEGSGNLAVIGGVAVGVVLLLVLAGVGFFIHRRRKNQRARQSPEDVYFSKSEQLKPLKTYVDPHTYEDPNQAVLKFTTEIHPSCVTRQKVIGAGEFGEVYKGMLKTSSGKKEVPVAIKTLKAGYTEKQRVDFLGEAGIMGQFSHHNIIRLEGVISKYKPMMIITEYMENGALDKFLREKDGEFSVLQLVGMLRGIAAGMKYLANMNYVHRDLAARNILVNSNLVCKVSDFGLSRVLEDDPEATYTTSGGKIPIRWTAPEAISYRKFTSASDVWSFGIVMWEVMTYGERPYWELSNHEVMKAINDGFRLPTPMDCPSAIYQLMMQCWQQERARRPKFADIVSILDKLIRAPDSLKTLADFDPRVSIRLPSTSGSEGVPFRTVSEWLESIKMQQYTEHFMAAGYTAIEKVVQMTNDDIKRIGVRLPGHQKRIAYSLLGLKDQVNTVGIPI
Chain of Calcium/calmodulin-dependent protein kinase type II subunit beta (Homo sapiens) (Q13554 whole entry): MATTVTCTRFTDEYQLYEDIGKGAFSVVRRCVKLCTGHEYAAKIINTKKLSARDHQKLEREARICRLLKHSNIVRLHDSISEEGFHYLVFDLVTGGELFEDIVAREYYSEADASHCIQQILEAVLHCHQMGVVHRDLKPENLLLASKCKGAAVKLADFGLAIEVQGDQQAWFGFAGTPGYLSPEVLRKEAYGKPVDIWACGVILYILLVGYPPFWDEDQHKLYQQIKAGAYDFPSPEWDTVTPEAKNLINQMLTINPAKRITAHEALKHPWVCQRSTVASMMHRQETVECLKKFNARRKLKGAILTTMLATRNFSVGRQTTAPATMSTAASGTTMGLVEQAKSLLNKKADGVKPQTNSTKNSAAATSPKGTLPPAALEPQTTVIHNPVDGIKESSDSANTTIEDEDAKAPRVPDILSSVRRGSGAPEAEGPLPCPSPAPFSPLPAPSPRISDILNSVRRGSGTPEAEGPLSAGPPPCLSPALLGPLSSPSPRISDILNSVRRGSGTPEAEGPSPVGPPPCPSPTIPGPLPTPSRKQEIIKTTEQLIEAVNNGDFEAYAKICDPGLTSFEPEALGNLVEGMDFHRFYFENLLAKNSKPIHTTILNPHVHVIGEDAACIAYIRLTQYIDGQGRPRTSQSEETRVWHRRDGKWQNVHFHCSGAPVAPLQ
Chain of Mitogen-activated protein kinase 14 (Q16539 whole entry): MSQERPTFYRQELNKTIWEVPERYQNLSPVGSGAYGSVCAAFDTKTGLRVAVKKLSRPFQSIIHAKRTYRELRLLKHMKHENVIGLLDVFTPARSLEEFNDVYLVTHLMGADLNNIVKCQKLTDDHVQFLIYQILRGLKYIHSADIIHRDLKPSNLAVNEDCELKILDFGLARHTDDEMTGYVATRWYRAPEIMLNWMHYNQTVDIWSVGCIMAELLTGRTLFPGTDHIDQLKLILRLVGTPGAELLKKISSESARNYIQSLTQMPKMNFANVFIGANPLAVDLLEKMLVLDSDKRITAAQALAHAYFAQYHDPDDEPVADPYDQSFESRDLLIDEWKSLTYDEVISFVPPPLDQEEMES
Chain of RAC-alpha serine/threonine-protein kinase (P31749 whole entry): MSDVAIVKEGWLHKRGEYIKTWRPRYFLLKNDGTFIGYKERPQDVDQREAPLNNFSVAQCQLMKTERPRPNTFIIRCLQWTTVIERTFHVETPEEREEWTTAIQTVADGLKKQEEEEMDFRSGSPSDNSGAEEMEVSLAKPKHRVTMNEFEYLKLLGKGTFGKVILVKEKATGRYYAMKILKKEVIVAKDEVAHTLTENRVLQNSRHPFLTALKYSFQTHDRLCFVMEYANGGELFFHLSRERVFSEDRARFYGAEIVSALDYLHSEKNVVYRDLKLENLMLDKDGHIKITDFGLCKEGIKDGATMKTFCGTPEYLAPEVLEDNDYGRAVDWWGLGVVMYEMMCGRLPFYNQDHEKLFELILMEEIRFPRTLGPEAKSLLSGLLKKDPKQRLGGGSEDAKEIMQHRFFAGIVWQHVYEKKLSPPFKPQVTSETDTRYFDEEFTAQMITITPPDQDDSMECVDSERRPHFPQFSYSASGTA
Chain of Serine/threonine-protein kinase Nek4 (Homo sapiens) (P51957 whole entry, looked up): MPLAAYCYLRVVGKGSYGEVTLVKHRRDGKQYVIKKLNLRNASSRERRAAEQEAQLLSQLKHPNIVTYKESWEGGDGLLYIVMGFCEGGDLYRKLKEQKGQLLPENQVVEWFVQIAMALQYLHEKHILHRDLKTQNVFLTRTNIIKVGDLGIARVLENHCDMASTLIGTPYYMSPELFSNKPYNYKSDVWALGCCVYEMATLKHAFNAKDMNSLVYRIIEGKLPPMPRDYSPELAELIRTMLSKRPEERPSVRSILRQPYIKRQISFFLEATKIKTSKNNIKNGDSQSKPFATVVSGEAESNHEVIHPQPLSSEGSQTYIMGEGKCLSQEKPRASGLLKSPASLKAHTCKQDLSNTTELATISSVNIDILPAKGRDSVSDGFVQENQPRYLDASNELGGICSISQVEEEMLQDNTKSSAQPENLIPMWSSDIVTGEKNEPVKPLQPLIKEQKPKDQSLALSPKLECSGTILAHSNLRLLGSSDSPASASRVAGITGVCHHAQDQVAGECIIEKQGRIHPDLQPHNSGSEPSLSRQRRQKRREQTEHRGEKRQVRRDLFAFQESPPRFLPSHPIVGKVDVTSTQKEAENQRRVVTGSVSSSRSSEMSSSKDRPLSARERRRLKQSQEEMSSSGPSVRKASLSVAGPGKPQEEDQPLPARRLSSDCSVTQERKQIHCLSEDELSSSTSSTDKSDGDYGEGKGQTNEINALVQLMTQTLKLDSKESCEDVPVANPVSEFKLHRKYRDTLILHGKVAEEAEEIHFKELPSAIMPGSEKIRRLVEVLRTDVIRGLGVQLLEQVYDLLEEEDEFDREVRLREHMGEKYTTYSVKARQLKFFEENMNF
Chain of Phosphatidylinositol 4-kinase beta (Q9UBF8 2-816 limits assumed): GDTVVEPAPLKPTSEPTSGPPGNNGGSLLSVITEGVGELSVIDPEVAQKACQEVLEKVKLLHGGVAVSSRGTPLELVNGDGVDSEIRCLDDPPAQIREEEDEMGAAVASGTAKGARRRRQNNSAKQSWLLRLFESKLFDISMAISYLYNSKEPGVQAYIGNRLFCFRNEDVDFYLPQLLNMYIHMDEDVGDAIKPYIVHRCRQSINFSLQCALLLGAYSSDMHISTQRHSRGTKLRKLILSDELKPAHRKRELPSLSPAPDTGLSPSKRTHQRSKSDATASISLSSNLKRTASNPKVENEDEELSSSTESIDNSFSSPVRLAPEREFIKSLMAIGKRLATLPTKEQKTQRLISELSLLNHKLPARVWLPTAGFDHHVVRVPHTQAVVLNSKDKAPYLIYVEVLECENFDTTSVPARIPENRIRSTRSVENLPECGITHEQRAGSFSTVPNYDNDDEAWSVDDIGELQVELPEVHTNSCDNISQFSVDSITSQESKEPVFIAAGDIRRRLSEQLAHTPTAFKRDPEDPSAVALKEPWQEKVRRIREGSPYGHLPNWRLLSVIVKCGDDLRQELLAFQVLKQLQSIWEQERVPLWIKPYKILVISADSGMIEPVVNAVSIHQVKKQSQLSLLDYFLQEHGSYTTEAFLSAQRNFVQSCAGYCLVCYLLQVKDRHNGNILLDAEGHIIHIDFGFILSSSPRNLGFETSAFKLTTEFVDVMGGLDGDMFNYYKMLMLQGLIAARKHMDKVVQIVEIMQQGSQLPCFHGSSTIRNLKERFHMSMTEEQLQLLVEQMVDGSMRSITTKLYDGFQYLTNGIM

As to `Cn1cc(-n2cnc3c(NCc4nc5cc(Cl)c(Cl)cc5[nH]4)nc(N4CCOCC4)nc32)cn1`, in test [1], the % of control was -1.8%.

With `CNC(=O)Nc1ccc(-c2nc(N3CC4CCC(C3)O4)c3cnn(C4CCC5(CC4)OCCO5)c3n2)cc1`, the % of control in [2] was 83%.

As for `CN(C)CCOc1ccc(-c2nc(-c3ccncc3)c(-c3ccc4c(c3)CC/C4=N\O)[nH]2)cc1`, the % of control in test [3] turned out to be 100%.

As to `N#Cc1cccc(-c2c[nH]c3ncnc(N4CCOCC4)c23)c1`, the % of inhibition in [4] is -27%.

Usually IC50 stands for the concentration at which inhibition is half-maximal. In turn, `CCC(=O)N1CC[C@H](Nc2ncnc3c2CN(c2cnc(OC)c(C(F)(F)F)c2)CC3)C1` [LENIOLISIB] displayed an IC50 in test [5] above 10 µM.

As to `CC[C@@H]1[C@H](F)C(=O)N[C@@H]1COc1nccc2cc(C(N)=O)c(OC)cc12` [ZIMLOVISERTIB], the results for the % of inhibition in test [6] and in [7] were -26.4% and 6.26%, respectively.

On to `CCN(CC)CCCCNc1ncc2cc(-c3cc(OC)cc(OC)c3)c(NC(=O)NC(C)(C)C)nc2n1`, for which the % of control in test [8] came to 100%.

Turning to `C=CC(=O)Nc1cccc(C(=O)Nc2ccc(Nc3cc(-c4[nH]c(SC)nc4C)ccn3)cc2)c1`, the % of control is 74% in [9] (at 1 µM) and 52% in [9] (at 5 µM).

On to `CCC(=O)N1CCN(c2ccc(-n3c(=O)ccc4cnc5ccc(-c6cnc7ccccc7c6)cc5c43)cc2C(F)(F)F)CC1`, for which the % of control in test [10] was 59%.
